As usually defined, the logP is a log measure of how a compound divides between an organic and an aqueous phase. High values mean a more lipophilic compound, low ones a more hydrophilic compound. With `CO[C@H]1CCCC[C@@]1(c1ccccc1)N1CCCCC1`, the logP came to 4.73.
As for `CC1CCC(c2ccccc2)(N2CCCCC2)CC1` (stereo not given), the figure is 5.66.
Consider `C[C@H]1CCCC[C@@]1(c1cccs1)N1CCCCC1`, for which the logP turned out to be 7.29.
Compound `CO[C@@H]1CCCC[C@]1(c1cccs1)N1CCCCC1` showed a logP of 4.89.
As for `CC(C)(C)C1CCC(c2ccccc2)(N2CCCCC2)CC1` (stereo not given), the figure is 6.67.
As for `c1csc(C2(N3CCCCC3)CCCCC2)c1`, the figure is 6.02; as for `c1ccc(C2(N3CCCCC3)CCCCC2)cc1`, 5.74; as for `C[C@H]1CCC[C@](c2ccccc2)(N2CCCCC2)C1`, 5.86.
As for `C[C@H]1CCCC[C@@]1(c1ccccc1)N1CCCCC1`, the figure is 6.75; as for `C[C@@H]1CC(C)(C)C[C@](c2ccccc2)(N2CCCCC2)C1`, 6.35.
